Where “and” joins values, the source holds several entries; their conditions need not be identical. Equal entries are not always repeated. Where two headings read alike, the source gives them in different places.

On the set-up of assay [1]: method as in PMID 9299023. The conditions noted are these: smallest reported value for the ATP:Mg^2+ complex; read-out: dissociation constant; cited from earlier work.
For assay [2] the following is noted: EDTA titrated with Mg^2+, pH 7.5, 293 K.
Assay [3] deals with T1, EcMutT (Escherichia coli, UniProt P08337). The assay is described as follows: biochemical.
Assay [4] addresses T2, mtDUT (Mycobacterium tuberculosis, UniProt P9WNS5). The assay is described as follows: biochemical. In kind it is binding. Details: His tag (N); made in house.
Assay [5] addresses T3, hDUT (Homo sapiens, UniProt P33316).
T3 sequence (P33316 1-164 isoform P33316-2): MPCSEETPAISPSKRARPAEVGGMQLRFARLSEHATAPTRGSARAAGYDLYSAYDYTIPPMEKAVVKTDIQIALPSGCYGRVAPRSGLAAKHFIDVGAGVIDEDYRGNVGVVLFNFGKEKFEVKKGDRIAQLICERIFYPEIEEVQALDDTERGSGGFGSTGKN
In words: Isothermal titration calorimetry (ITC). In kind it is binding. Details: His tag (N); made in house.

Assay [6] addresses T4, Taq polymerase (Thermus aquaticus, UniProt P19821). Particulars: no Mg^2+, pH 7.5, 293 K.
Assay [7] addresses T3, hDUT. The assay is described as follows: Thermofluor stability assay. Particulars: for Tm (5 mM Mg^2+): 5 mM MgCl2. Details: His tag (N); made in house. In kind it is binding. (DSF heats the sample and reads unfolding from a dye or from intrinsic fluorescence.)
Assay [8] concerns the target T4, Taq polymerase. The assay is described as follows: biochemical.
The target in assay [9] is T1, EcMutT. The conditions noted are these: no Mg^2+, pH 7.5, 293 K.
Assay [10] concerns the target T3, hDUT. Particulars: no Mg^2+; for kcat: dUTP hydrolysis, 20 °C, pH 7.5. The procedure:
(§1) Continuous pH indicator-based assays were performed to measure enzyme activity at 20 °C as described in [26]. Briefly, 1 µM protein was used in a buffer pH 7.5 containing 1 mM HEPES, 100 mM KCl and 40 µM phenol red. A Specord 200 (Analytic, Jena, Germany) spectrophotometer and 10-mm-path length cuvettes were used, and absorbance was recorded at 559 nm. Initial velocity was determined from the first 10% of the progress curve. […] Data fitting was accomplished using OriginPro 7.5 (OriginLab Corp, Northampton, MA, USA).

In assay [11] the target is T2, mtDUT. How it is done:
as §1

Assay [12] deals with T3, hDUT. Details: His tag (N); made in house; method as in PMID 18519027, PMID 17848562. Particulars: dUTP hydrolysis; 5 mM Mg^2+, no EDTA; reported previously ref 20, 51; cited from earlier work.
Assay [13] has as its target T2, mtDUT. The conditions noted are these: cited from earlier work.
For assay [14], the target named is T3, hDUT. Details: His tag (N); made in house; method as in PMID 20601405, PMID 17880943, PMID 17848562. Particulars: same titration in the presence of Mg^2+; cited from earlier work.
Where [15] appears, read: no Mg^2+, pH 7.5, 293 K, average and SD.
Where [16] appears, read: apparent, no Mg^2+, pH 7.5, 293 K, average and SD.
The mark [17] stands for this setting: hDUT complexed with ligand (100 µM dUPNPP or 1 mM dUMP).
Setting [18] is: fit of the titration shown in Figure S1B, no Mg^2+.
[19] abbreviates: fit of the titration shown in Figure S1A, no Mg^2+.

T4 sequence (P19821 whole entry): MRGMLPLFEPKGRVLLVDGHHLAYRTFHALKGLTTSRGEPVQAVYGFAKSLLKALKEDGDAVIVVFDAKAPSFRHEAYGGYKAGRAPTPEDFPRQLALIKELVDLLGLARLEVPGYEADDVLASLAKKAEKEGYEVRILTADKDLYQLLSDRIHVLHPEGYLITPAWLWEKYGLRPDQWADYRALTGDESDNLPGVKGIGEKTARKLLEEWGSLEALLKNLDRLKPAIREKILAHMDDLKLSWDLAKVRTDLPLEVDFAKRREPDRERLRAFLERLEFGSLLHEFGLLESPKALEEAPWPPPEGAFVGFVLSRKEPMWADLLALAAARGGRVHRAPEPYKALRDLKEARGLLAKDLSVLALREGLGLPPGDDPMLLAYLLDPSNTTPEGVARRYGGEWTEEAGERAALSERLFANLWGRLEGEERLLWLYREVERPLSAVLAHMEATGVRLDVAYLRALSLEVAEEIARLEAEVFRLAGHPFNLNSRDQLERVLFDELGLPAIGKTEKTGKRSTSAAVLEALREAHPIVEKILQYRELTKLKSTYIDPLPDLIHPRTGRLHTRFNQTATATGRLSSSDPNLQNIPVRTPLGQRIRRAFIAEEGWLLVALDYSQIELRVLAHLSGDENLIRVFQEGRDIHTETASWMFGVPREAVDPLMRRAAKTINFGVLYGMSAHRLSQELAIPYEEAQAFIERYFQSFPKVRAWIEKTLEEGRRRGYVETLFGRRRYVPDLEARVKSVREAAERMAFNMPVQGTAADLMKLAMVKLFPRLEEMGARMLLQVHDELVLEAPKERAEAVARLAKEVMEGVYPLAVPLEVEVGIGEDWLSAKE
T2 sequence (P9WNS5 whole entry): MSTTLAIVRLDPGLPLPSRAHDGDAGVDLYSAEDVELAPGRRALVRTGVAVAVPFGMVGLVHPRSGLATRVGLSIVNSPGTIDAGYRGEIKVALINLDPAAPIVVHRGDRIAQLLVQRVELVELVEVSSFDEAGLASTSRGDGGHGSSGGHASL
T1 sequence (P08337 whole entry): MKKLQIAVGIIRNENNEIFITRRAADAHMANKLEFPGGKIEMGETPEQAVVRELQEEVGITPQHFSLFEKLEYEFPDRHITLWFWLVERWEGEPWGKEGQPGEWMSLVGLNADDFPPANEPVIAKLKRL

In the case of `Nc1ncnc2c1ncn2[C@@H]1O[C@H](COP(=O)(O)OP(=O)(O)OP(=O)(O)O)[C@@H](O)[C@H]1O` [ATP], in assay [1], the Kd was 46300 nM.
As for `O=C(O)CN(CCN(CC(=O)O)CC(=O)O)CC(=O)O` [EDTA, ethylene diamine tetraacetic acid], the ΔG in assay [2] was -8.0 ± 0.9 kcal/mol; on mtDUT [4] (setting [15]), -9.6 ± 0.2 kcal/mol; at hDUT [5] (setting [15]) it was -9.0 ± 0.0 kcal/mol; at Taq polymerase [6], -9.8 ± 0.0 kcal/mol; on EcMutT [9], -8.4 ± 0.1 kcal/mol. In addition, the ΔH in assay [2] was 4.4 ± 0.3 kcal/mol; on mtDUT [4] (setting [15]), -4.2 ± 1.0 kcal/mol; at hDUT [5] (setting [15]), -11.2 ± 0.4 kcal/mol; on Taq polymerase [6], -6.3 ± 0.7 kcal/mol; on EcMutT [9] it was -9.7 ± 0.02 kcal/mol. Also, the “−TΔS” value is -12.5 ± 0.6 kcal/mol in [2]; -5.3 ± 1.2 kcal/mol at mtDUT [4] (setting [15]); 2.2 ± 0.4 kcal/mol on hDUT [5] (setting [15]); -3.5 ± 0.7 kcal/mol at Taq polymerase [6]; 1.3 ± 0.1 kcal/mol on EcMutT [9]. Also, the Kd in assay [2] (apparent) was determined as 2530 ± 180 nM; on EcMutT [3], 550 ± 66 nM; on mtDUT [4], 78 nM; on hDUT [5] (absence of Mg^2+), 199 nM; at hDUT [5] (setting [16]), 200 ± 9 nM; at Taq polymerase [8] it was 47 nM. In addition, the “Tm (100 µM EDTA)” value on hDUT [7] (apo hDUT) was found to be 58.5 ± 0.1 °C. Moreover, the KM increase is recorded as 2.7 fold on hDUT [10] (30 µM EDTA) and 3.7 fold at mtDUT [11]. The “kcat decreased to” value at hDUT [10] (100 µM EDTA) is reported as 6%. Moreover, the kcat stood at 3.30 ± 0.26 s⁻¹ on hDUT [10] (30 µM EDTA) and 0.24 ± 0.03 s⁻¹ at hDUT [10] (100 µM EDTA).
On to `[Mg+2]` [Mg^2+], for which the Michaelis-Menten constant (Km) on hDUT [12] is 2.26 ± 0.33 µM; at mtDUT [13] (dUTP hydrolysis, 5 mM Mg^2+, no EDTA, reported previously ref 20, 51), 1.72 ± 0.51 µM. Besides, the figures for the turnover number (kcat) at hDUT [12] and at mtDUT [13] were 5.27 ± 0.24 s⁻¹ and 2.39 ± 0.16 s⁻¹, respectively. Further, on hDUT [7] (apo hDUT), the “Tm (5 mM Mg^2+)” value amounted to 59.5 ± 0.3 °C. Further, at hDUT [7] (apo hDUT, 5 mM Mg^2+ vs no Mg^2+), the “increase of melting temperature in the presence of Mg^2+” value came to 0.9 °C.
As for `O=c1ccn([C@H]2C[C@H](O)[C@@H](COP(=O)(O)O)O2)c(=O)[nH]1` [dUMP], at hDUT [7] (setting [17]), the “Tm (100 µM EDTA)” value stood at 58.7 ± 0.1 °C; the “Tm (5 mM Mg^2+)” value worked out at 62.3 ± 0.1 °C; the “Tm (No Mg^2+, no EDTA)” value was found to be 59.7 ± 0.1 °C.
As to `O=c1ccn([C@H]2C[C@H](O)[C@@H](COP(=O)(O)NP(=O)(O)OP(=O)(O)O)O2)c(=O)[nH]1` [dUPNPP], on mtDUT [4], the “n (stoichiometry)” value is listed as 1. Besides, on mtDUT [4] (setting [18]), the ΔG entry is “–6.2 kcal/mol”, the ΔH result is recorded as “–4.4 kcal/mol” and the “–TΔS” value is “–1.8 kcal/mol”. Besides, on mtDUT [4] (setting [15]), the ΔH was -4.5 ± 0.2 kcal/mol and the “−TΔS” value was -2.1 ± 0.4 kcal/mol. Besides, the Kd on hDUT [5] (setting [16]) was 44000 nM and 43900 nM. Besides, on hDUT [5] (setting [19]), the Kd came to 54000 nM, the “n (stoichiometry)” value turned out to be 0.41, the ΔG entry is listed as “–5.7 kcal/mol” and the ΔH entry is reported as “–19.9 kcal/mol”. Further, the “–TΔS” value on hDUT [5] (setting [19]) was 14.1 kcal/mol. Further, at hDUT [5] (setting [15]), the ΔG is -5.9 ± 0.2 kcal/mol, the ΔH was -17.4 ± 3.6 kcal/mol and the “−TΔS” value was 11.5 ± 3.7 kcal/mol. In addition, at hDUT [7] (setting [17]), the “Tm (100 µM EDTA)” value turned out to be 58.3 ± 0.1 °C; the “Tm (5 mM Mg^2+)” value is 63.9 ± 0.3 °C; the “Tm (No Mg^2+, no EDTA)” value stood at 59.1 ± 0.2 °C. In addition, the Kd at hDUT [14] was 2000 to 7000 nM.

By kcat is commonly meant the number of substrate molecules converted per active site and unit of time at saturation. As usually defined, the Km is the concentration of substrate that gives half-maximal velocity.

(Values after PMC6843921 (Biomolecules, 2019).)
